Consider two compounds from patent publication US8148375B2, “(Cyclopropylphenyl)phenyloxamides, method for the production thereof, and use of same as a medicament” (Sanofi-Aventis, priority 2007, dated 2012).

In this assay the target is T1, GPCR GPR40 (Homo sapiens, UniProt O14842).
T1 construct: expressed in transfected cells; host or cells: HEK293
The experiment in a line: In-vitro FLIPR assay with recombinant cells which express the GPCR GPR40. The settings on record: agonist-induced intracellular Ca2+ change in recombinant HEK293 cells expressing GPR40; relative to 10 μM linoleic acid = 100%. The assay is classed as cell-based. The protocol: In-vitro FLIPR Assay with Recombinant Cells which Express the GPCR GPR40
Function-testing assays were carried out by means of the FLIPR technique (“fluorescence imaging plate reader”, Molecular Devices Corp.). For this purpose, agonist-induced alterations in the intracellular concentration of Ca^2+ in recombinant HEK293 cells which express the GPCR GPR40 were determined.
For the investigations, cells were seeded in 96-well microtiter plates (60 000 cells/well) and left to grow overnight. The medium was removed and the cells were incubated in buffer which contained the fluorescent dye Fluo-4. After this loading with dye, the cells were washed, test substance was added and alterations in the intracellular Ca^2+ concentration were measured in the FLIPR instrument. Results have been depicted as percentage alteration relative to the control (0%: no test substance added; 100%: 10 μM reference agonist linoleic acid added) used to calculate dose/activity plots and EC50 values were determined.

T1 sequence (O14842 whole entry): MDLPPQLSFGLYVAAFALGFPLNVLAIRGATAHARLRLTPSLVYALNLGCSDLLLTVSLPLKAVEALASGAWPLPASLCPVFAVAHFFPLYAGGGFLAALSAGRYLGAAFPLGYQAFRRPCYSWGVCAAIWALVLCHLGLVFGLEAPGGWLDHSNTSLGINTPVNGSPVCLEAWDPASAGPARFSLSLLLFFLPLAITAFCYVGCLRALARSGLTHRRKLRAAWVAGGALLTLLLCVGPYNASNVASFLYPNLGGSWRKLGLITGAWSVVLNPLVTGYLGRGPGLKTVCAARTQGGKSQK

Regarding `O=C(Nc1ccc(C2CC2C(=O)O)cc1)C(=O)Nc1cccc(Cl)c1Cl` (centres unmarked) [Example 3], the EC50 worked out at 800 nM.

As for `O=C(Nc1ccc(C2CC2C(=O)O)cc1)C(=O)Nc1ccc(Cl)cc1C(F)(F)F` (centres unmarked) [Example 2], the EC50 turned out to be 700 nM.

One may read the EC50 as the concentration at which the effect is half-maximal.
